Reference: patent US8158650B2, “Substituted phenylmethyl bicyclocarboxyamide compounds” (Pfizer Inc., priority 2006, dated 2012)

These compounds were tested against human VR1 (Homo sapiens, UniProt Q8NER1) (assay: Human VR1 antagonist assay (Ca2+ imaging)). Settings: intracellular Ca2+ imaging (fura-2) in cells expressing human VR1 receptors; stimulus (capsaicin or acid) not given.
Format: cell-based
Source text: VR1 antagonistic activity can be determined by the Ca^2+ imaging assay using human VR1 highly expressing cells. The cells that highly express human VR1 receptors are obtainable from several different conventional methods. The one standard method is cloning from human Dorsal Root Ganglion (DRG) or kidney according to the methods such as described in the journal article; Nature, 389, pp 816-824, 1997. Alternatively VR1 receptors highly expressing human keratinocytes are also known and published in the journal article (Biochemical and Biophysical Research Communications, 291, pp 124-129, 2002). […] Furthermore, the method to up regulate human VR1 gene, which is usually a silent gene or don't produce detectable level of VR1 receptors, is also available to obtain propriety cells. Such genetic modification method was described in detail; Nat. Biotechnol., 19, pp 440-445, 2001.
The cells that express human VR1 receptors were maintained in culture flask at 37° C. in an environment containing 5% CO2 until use in the assay. The intracellular Ca^2+ imaging assay to determine VR1 antagonistic activities were done by following procedures.
The culture medium was removed from the flask and fura-2/AM fluorescent calcium indicator was added to the flask at a concentration of 5 μM in the medium. The flask was placed in CO2 incubator and incubated for 1 hour. Then the cells expressing the human VR1 receptors were detached from the flask follow by washing with phosphate buffer saline, PBS(−) and re-suspended in assay buffer. The 80 μl of aliquot of cell suspension (3.75×10^5 cells/ml) was added to the assay plate and the cells were spun down by centrifuge (950 rpm, 20° C., 3 minutes).
The compounds of the examples were tested in the Human VR1 antagonist assay described above.
The capsaicin-induced changes in the intracellular calcium concentration were monitored using FDSS 6000 (Hamamatsu Photonics, Japan), a fluorometric imaging system. The cell suspension in Krebs-Ringer HEPES (KRH) buffer (115 mM NaCl, 5.4 mM KCl, 1 mM MgSO4, 1.8 mM CaCl2, 11 mM D-Glucose, 25 mM HEPES, 0.96 mM Na2HPO4, pH 7.3) were pre-incubated with varying concentrations of the test compounds or KRH buffer (buffer control) for 15 minutes at room temperature under the dark condition. Then capsaicin solution, which gives 300 nM in assay mixture, was automatically added to the assay plate by the FDSS 6000.
The acid-induced changes in the intracellular calcium concentration were monitored using FDSS 6000 (Hamamatsu Photonics, Japan), a fluorometric imaging system. The cell suspension in resting buffer (HBSS supplemented with 10 mM HEPES, pH 7.4) were pre-incubated with varying concentrations of the test compounds or resting buffer (buffer control) for 15 minutes at room temperature under the dark condition. The cells were automatically added the stimulating solution (HBSS supplemented with MES, final assay buffer pH5.8) by the FDSS 6000.
The monitoring of the changes in the fluorescence signals (λex=340 nm/380 nm, λem=510-520 nm) was initiated at 1 minute prior to the addition of capsaicin solution or acidic buffer and continued for 5 minute.

human VR1, sequence (Q8NER1 whole entry): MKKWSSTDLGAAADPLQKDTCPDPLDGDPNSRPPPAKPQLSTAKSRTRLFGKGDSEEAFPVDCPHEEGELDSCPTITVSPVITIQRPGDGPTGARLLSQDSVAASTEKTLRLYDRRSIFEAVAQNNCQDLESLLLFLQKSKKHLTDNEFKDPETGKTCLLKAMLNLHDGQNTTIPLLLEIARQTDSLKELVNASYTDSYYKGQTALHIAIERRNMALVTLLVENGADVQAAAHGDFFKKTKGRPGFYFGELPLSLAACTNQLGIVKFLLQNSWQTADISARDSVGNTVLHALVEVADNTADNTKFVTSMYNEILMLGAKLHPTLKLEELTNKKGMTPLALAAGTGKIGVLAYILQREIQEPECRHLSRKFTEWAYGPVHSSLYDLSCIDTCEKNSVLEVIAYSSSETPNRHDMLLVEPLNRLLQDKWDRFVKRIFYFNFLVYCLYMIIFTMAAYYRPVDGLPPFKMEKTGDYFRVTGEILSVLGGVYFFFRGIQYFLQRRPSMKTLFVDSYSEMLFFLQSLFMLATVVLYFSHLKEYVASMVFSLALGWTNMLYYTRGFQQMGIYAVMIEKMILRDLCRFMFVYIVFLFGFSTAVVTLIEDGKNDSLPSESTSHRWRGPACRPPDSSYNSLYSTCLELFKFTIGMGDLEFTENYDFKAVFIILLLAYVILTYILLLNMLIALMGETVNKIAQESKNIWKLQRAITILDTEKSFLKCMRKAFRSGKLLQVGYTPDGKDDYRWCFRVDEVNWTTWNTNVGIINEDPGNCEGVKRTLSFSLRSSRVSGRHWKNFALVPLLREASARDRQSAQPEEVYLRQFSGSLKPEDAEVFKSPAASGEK

IC50 [nM] | Compound
31.8 | Cc1cc([C@@H](C)NC(=O)c2ccc3nc(C(C)(C)C(F)(F)F)ccc3c2)c(Cl)cc1O [Example D13, N-[(1R)-1-(2-Chloro-4-hydroxy-5-methylphenyl)ethyl]-2-(2,2,2-trifluoro-1,1-dimethylethyl)quinoline-6-carboxamide]
331 | Cc1cc([C@@H](C)NC(=O)c2ccc3nc(C(C)(C)C)ccc3c2)c(Cl)cc1O [Example D5, 2-tert-butyl-N-[(1R)-1-(2-chloro-4-hydroxy-5-methylphenyl)ethyl]5 quinoline-6-carboxamide]
237 to 455 | Oc1cc2c(cc1O)CN(C(=S)NCCc1ccc(Cl)cc1)CCC2 [Capsazepine, reference compound]
590 | COc1cc(CNC(=O)c2ccc3cc(C(C)(C)C)ccc3n2)c(Cl)cc1O [Example B1]
311 | Cc1cc(CNC(=O)c2ccc3nc(C(C)(C)C)ccc3c2)c(Cl)cc1O [Example D10, 2-tert-Butyl-N-(2-chloro-4-hydroxy-5-methylbenzyl)quinoline-6-carboxamide]
31.9 | Cc1cc([C@H](C)NC(=O)c2ccc3nc(C(C)(C)C)ccc3c2)c(Cl)cc1O [Example D7, 2-tert-Butyl-N-[(1S)-1-(2-chloro-4-hydroxy-5-methylphenyl)ethyl]quinoline-6-carboxamide]
254 | COc1cc([C@@H](C)NC(=O)c2ccc3nc(C(C)(C)C)ccc3c2)ccc1O [Example D15, 2-tert-Butyl-N-[(1R)-1-(4-hydroxy-3-methoxyphenyl)ethyl]quinoline-6-carboxamide]
667 | Cc1cc([C@@H](C)NC(=O)c2cnc3cc(C(F)(F)F)ccc3c2)c(Cl)cc1O [Example C2, N-[(1R)-1-(2-Chloro-4-hydroxy-5-methylphenyl)ethyl]-7-(trifluoromethyl)quinoline-3-carboxamide]
93.5 | COc1cc(Cl)c([C@@H](C)NC(=O)c2ccc3cc(C(C)(C)C)ccc3c2)cc1C [Example A1, 6-tert-Butyl-N-[(1R)-1-(2-chloro-4-methoxy-5-methylphenyl)ethyl]-2-naphthamide]
65.5 | Cc1cc(C(C)NC(=O)c2ccc3nc(C(C)(C)C(F)(F)F)ccc3c2)c(F)cc1CO (stereo not drawn) [Example D14, N-{1-[2-Fluoro-4-(hydroxymethyl)-5-methylphenyl]ethyl}-2-(2,2,2-trifluoro-1,1-dimethylethyl)quinoline-6-carboxamide]
270 | COc1cc(Cl)c([C@@H](C)NC(=O)c2ccc3nc(C(C)(C)C)ccc3c2)cc1C [Example D4, 2-tert-Butyl-N-[(1R)-1-(2-chloro-4-methoxy-5-methylphenyl)ethyl]quinoline-6-carboxamide]
34.2 | Cc1cc([C@@H](C)NC(=O)c2ccc3cc(C(C)(C)C)ccc3c2)c(Cl)cc1O [Example A2, 6-tert-Butyl-N-[(1R)-1-(2-chloro-4-hydroxy-5-methylphenyl)ethyl]-2-naphthamide]
403 | COc1cc(CNC(=O)c2ccc3nc(C(C)(C)C)ccc3c2)c(Br)cc1O [Example D3, N-(2-Bromo-4-hydroxy-5-methoxybenzyl)-2-tert-butylquinoline-6-carboxamide]
434 | C[C@@H](NC(=O)c1ccc2nc(C(C)(C)C)ccc2c1)c1ccc(CO)cc1 [Example D8, 2-tert-Butyl-N-{(1R)-1-[4-(hydroxymethyl)phenyl]ethyl}quinoline-6-carboxamide]
501 | Cc1cc(CNC(=O)c2ccc3nc(C(C)(C)C)ccc3c2)c(F)cc1O [Example D11, 2-tert-Butyl-N-(2-fluoro-4-hydroxy-5-methylbenzyl)quinoline-6-carboxamide]
181 | COc1cc(Cl)c([C@@H](C)NC(=O)c2ccc3nc(C(C)(C)C(F)(F)F)ccc3c2)cc1C [Example D12, N-[(1R)-1-(2-Chloro-4-methoxy-5-methylphenyl)ethyl]-2-(2,2,2-trifluoro-1,1-dimethylethyl)quinoline-6-carboxamide]
74.1 | COc1cc([C@@H](C)NC(=O)c2ccc3nc(C(C)(C)C)ccc3c2)c(Cl)cc1O [Example D1, 2-tert-Butyl-[(1R)-1-(2-chloro-4-hydroxy-5-methoxyphenyl)ethyl]quinoline-6-carboxamide]
176 | COc1cc(CNC(=O)c2ccc3nc(C(C)(C)C)ccc3c2)c(Cl)cc1O [Example D2, 2-tert-Butyl-N-(2-chloro-4-hydroxy-5-methoxybenzyl)quinoline-6-carboxamide]
